# Several values for one entry are separate records, joined by “and”; a condition that tells them apart may be missing. Equal values may be shown once.
# Tested on: human PBMCs
# Test: LPS-induced cytokine and chemokine levels in human PBMC supernatant (Luminex, ELISA)
# Format: cell-based
# Details: for TNF-α [pg/mL], Mean / TNF-α [pg/mL], individual value / GM-CSF % reduction / GM-CSF [pg/mL], Mean / GM-CSF [pg/mL], individual value / IL-1β % reduction / IL-1β [pg/mL], Mean / IL-1β [pg/mL], individual value / IL-6 % reduction / IL-6 [pg/mL], Mean / IL-6 [pg/mL], individual value / IL-8 % reduction / IL-8 [pg/mL], Mean / IL-8 [pg/mL], individual value / TNF-α % reduction: LPS-stimulated human PBMC supernatant
smiles,measurement,setting,value
CC[C@H]1OC(=O)[C@H](C)[C@@H](O[C@H]2C[C@@](C)(OC)[C@@H](O)[C@H](C)O2)[C@H](C)[C@@H](O[C@@H]2O[C@H](C)C[C@H](N(C)C)[C@H]2O)[C@](C)(O)C[C@@H](C)CN(C)[C@H](C)[C@@H](O)[C@]1(C)O [Azithromycin],"TNF-α [pg/mL], Mean",0.03 µM,11102 pg/mL
same,"TNF-α [pg/mL], individual value",0.03 µM,10517 pg/mL and 11687 pg/mL
same,GM-CSF % reduction,0.1 µM,8%
same,"GM-CSF [pg/mL], Mean",0.1 µM,606 pg/mL
same,"GM-CSF [pg/mL], individual value",0.1 µM,616 pg/mL and 597 pg/mL
same,IL-1β % reduction,0.1 µM,7%
same,"IL-1β [pg/mL], Mean",0.1 µM,11909 pg/mL
same,"IL-1β [pg/mL], individual value",0.1 µM,12184 pg/mL and 11633 pg/mL
same,IL-6 % reduction,0.1 µM,10%
same,"IL-6 [pg/mL], Mean",0.1 µM,31536 pg/mL
same,"IL-6 [pg/mL], individual value",0.1 µM,30929 pg/mL and 32144 pg/mL
same,IL-8 % reduction,0.1 µM,-3.72%
same,"IL-8 [pg/mL], Mean",0.1 µM,3056 pg/mL
same,"IL-8 [pg/mL], individual value",0.1 µM,3040 pg/mL and 3071 pg/mL
same,TNF-α % reduction,0.1 µM,8%
same,"TNF-α [pg/mL], Mean",0.1 µM,8220 pg/mL
same,"TNF-α [pg/mL], individual value",0.1 µM,7335 pg/mL and 9106 pg/mL
same,GM-CSF % reduction,0.3 µM,3.39%
same,"GM-CSF [pg/mL], Mean",0.3 µM,635 pg/mL
same,"GM-CSF [pg/mL], individual value",0.3 µM,650 pg/mL and 620 pg/mL
same,IL-1β % reduction,0.3 µM,5%
same,"IL-1β [pg/mL], Mean",0.3 µM,12146 pg/mL
same,"IL-1β [pg/mL], individual value",0.3 µM,12820 pg/mL and 11473 pg/mL
same,IL-6 % reduction,0.3 µM,8%
same,"IL-6 [pg/mL], Mean",0.3 µM,32119 pg/mL
same,"IL-6 [pg/mL], individual value",0.3 µM,32538 pg/mL and 31700 pg/mL
same,IL-8 % reduction,0.3 µM,-0.427%
same,"IL-8 [pg/mL], Mean",0.3 µM,3002 pg/mL
same,"IL-8 [pg/mL], individual value",0.3 µM,2940 pg/mL and 3064 pg/mL
same,TNF-α % reduction,0.3 µM,8%
same,"TNF-α [pg/mL], Mean",0.3 µM,8210 pg/mL
same,"TNF-α [pg/mL], individual value",0.3 µM,7975 pg/mL and 8445 pg/mL
same,GM-CSF % reduction,1 µM,6.38%
same,"GM-CSF [pg/mL], Mean",1 µM,616 pg/mL
same,"GM-CSF [pg/mL], individual value",1 µM,634 pg/mL and 597 pg/mL
same,IL-1β % reduction,1 µM,4%
same,"IL-1β [pg/mL], Mean",1 µM,12252 pg/mL
same,"IL-1β [pg/mL], individual value",1 µM,12213 pg/mL and 12291 pg/mL
same,IL-6 % reduction,1 µM,-4.52%
same,"IL-6 [pg/mL], Mean",1 µM,36486 pg/mL
same,"IL-6 [pg/mL], individual value",1 µM,36508 pg/mL and 36463 pg/mL
same,IL-8 % reduction,1 µM,0.166%
same,"IL-8 [pg/mL], Mean",1 µM,2992 pg/mL
same,"IL-8 [pg/mL], individual value",1 µM,2945 pg/mL and 3040 pg/mL
same,TNF-α % reduction,1 µM,-33%
same,"TNF-α [pg/mL], Mean",1 µM,11913 pg/mL
same,"TNF-α [pg/mL], individual value",1 µM,11577 pg/mL and 12250 pg/mL
same,GM-CSF % reduction,3 µM,-8.5%
same,"GM-CSF [pg/mL], Mean",3 µM,713 pg/mL
same,"GM-CSF [pg/mL], individual value",3 µM,735 pg/mL and 692 pg/mL
same,IL-1β % reduction,3 µM,-0.234%
same,"IL-1β [pg/mL], Mean",3 µM,12815 pg/mL
same,"IL-1β [pg/mL], individual value",3 µM,12810 pg/mL and 12820 pg/mL
same,IL-6 % reduction,3 µM,4%
same,"IL-6 [pg/mL], Mean",3 µM,33458 pg/mL
same,"IL-6 [pg/mL], individual value",3 µM,33827 pg/mL and 33090 pg/mL
same,IL-8 % reduction,3 µM,-3.25%
same,"IL-8 [pg/mL], Mean",3 µM,3048 pg/mL
same,"IL-8 [pg/mL], individual value",3 µM,3040 pg/mL and 3056 pg/mL
same,TNF-α % reduction,3 µM,-13%
same,"TNF-α [pg/mL], Mean",3 µM,10076 pg/mL
same,"TNF-α [pg/mL], individual value",3 µM,10741 pg/mL and 9410 pg/mL
same,GM-CSF % reduction,10 µM,-18%
same,"GM-CSF [pg/mL], Mean",10 µM,778 pg/mL
same,"GM-CSF [pg/mL], individual value",10 µM,790 pg/mL and 767 pg/mL
same,IL-1β % reduction,10 µM,6%
same,"IL-1β [pg/mL], Mean",10 µM,12046 pg/mL
same,"IL-1β [pg/mL], individual value",10 µM,12362 pg/mL and 11731 pg/mL
same,IL-6 % reduction,10 µM,4.69%
same,"IL-6 [pg/mL], Mean",10 µM,33270 pg/mL
same,"IL-6 [pg/mL], individual value",10 µM,35180 pg/mL and 31360 pg/mL
same,IL-8 % reduction,10 µM,7.45%
same,"IL-8 [pg/mL], Mean",10 µM,2874 pg/mL
same,"IL-8 [pg/mL], individual value",10 µM,2884 pg/mL and 2864 pg/mL
same,TNF-α % reduction,10 µM,-22%
same,"TNF-α [pg/mL], Mean",10 µM,10907 pg/mL
same,"TNF-α [pg/mL], individual value",10 µM,11897 pg/mL and 9917 pg/mL
same,GM-CSF % reduction,30 µM,-64%
same,"GM-CSF [pg/mL], Mean",30 µM,1076 pg/mL
same,"GM-CSF [pg/mL], individual value",30 µM,1120 pg/mL and 1032 pg/mL
same,IL-1β % reduction,30 µM,22%
same,"IL-1β [pg/mL], Mean",30 µM,10027 pg/mL
same,"IL-1β [pg/mL], individual value",30 µM,10517 pg/mL and 9538 pg/mL
same,IL-6 % reduction,30 µM,2.66%
same,"IL-6 [pg/mL], Mean",30 µM,33980 pg/mL
same,"IL-6 [pg/mL], individual value",30 µM,33792 pg/mL and 34168 pg/mL
same,IL-8 % reduction,30 µM,5%
same,"IL-8 [pg/mL], Mean",30 µM,2917 pg/mL
same,"IL-8 [pg/mL], individual value",30 µM,2925 pg/mL and 2908 pg/mL
same,TNF-α % reduction,30 µM,-21%
same,"TNF-α [pg/mL], Mean",30 µM,10839 pg/mL
same,"TNF-α [pg/mL], individual value",30 µM,10668 pg/mL and 11009 pg/mL
same,GM-CSF % reduction,100 µM,-161%
same,"GM-CSF [pg/mL], Mean",100 µM,1715 pg/mL
same,"GM-CSF [pg/mL], individual value",100 µM,1713 pg/mL and 1717 pg/mL
same,IL-1β % reduction,100 µM,51%
same,"IL-1β [pg/mL], Mean",100 µM,6242 pg/mL
same,"IL-1β [pg/mL], individual value",100 µM,5956 pg/mL and 6528 pg/mL
same,IL-6 % reduction,100 µM,23%
same,"IL-6 [pg/mL], Mean",100 µM,27053 pg/mL
same,"IL-6 [pg/mL], individual value",100 µM,26301 pg/mL and 27804 pg/mL
same,"IL-8 [pg/mL], Mean",100 µM,2975 pg/mL
same,"IL-8 [pg/mL], individual value",100 µM,2977 pg/mL and 2972 pg/mL
same,TNF-α % reduction,100 µM,17%
same,"TNF-α [pg/mL], Mean",100 µM,7409 pg/mL
same,"TNF-α [pg/mL], individual value",100 µM,6229 pg/mL and 8589 pg/mL
same,"levels of the measured LPS-induced cytokines, chemokines, or MMP-9 in supernatants","human PBMCs, concentrations tested (100 μM not shown)",little to no reduction

# Source: publication PMC8480901 (PLoS ONE, 2021)
